Patent publication US6979686B1, “Substituted pyrazoles as p38 kinase inhibitors” (Pharmacia Corporation, priority 2001, dated 2005)
Like-named read-outs stand apart in the source and are kept apart here.

Biological target: T1, human p38 kinase alpha (Homo sapiens, UniProt Q16539)
T1 construct: GST (N, cleaved yes); made in house; host or cells: E. coli DH10B
Assay: p38 kinase in vitro assay, phosphorylation of biotinylated PHAS-I with 32P-ATP
Type: biochemical

[1] = in vitro P38-alpha kinase inhibition, read-out: P38 alpha kinase IC50
[2] = in vitro P38-alpha kinase, read-out: P38 alpha kinase IC50

T1 sequence (Q16539 whole entry): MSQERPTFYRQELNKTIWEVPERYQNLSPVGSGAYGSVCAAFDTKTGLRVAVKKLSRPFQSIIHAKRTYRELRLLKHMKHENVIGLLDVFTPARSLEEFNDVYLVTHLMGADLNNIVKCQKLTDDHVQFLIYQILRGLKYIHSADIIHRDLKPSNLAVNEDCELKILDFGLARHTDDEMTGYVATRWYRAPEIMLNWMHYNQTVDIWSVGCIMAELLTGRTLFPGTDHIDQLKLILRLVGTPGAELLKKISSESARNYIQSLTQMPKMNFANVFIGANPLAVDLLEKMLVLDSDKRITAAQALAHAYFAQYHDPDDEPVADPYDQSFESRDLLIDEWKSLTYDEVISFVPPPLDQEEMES

SMILES | IC50 [1] | IC50 [2] | also measured
Cc1c(-c2ccncc2)c(-c2ccc(F)cc2)nn1CC(=O)Nc1ccccc1Cl [Example B-2422] |  |  | P38 alpha kinase IC50, uM or % inhib @ conc. (uM): % inhib (@ 10.0 uM): 90.0% @
O=C(NC(Cc1ccccc1)c1[nH]nc(-c2ccc(F)cc2)c1-c1ccncc1)C1CCCN1 (stereo not shown) [Example B-0749] | 4400 nM |  | 
COCCN(CC1CCCCC1)C(=O)Cn1nc(-c2ccc(F)cc2)c(-c2ccncc2)c1C [Example B-2392] |  |  | P38 alpha kinase IC50, uM or % inhib @ conc. (uM): % inhib (@ 10.0 uM): 63.0% @
CCCCOc1ccc(S(=O)(=O)NC(C)c2[nH]nc(-c3ccc(F)cc3)c2-c2ccncc2)cc1 (stereo not shown) [Example B-0633] | 600 nM |  | 
CC(NC(=O)c1cccc(F)c1F)c1[nH]nc(-c2ccc(F)cc2)c1-c1ccncc1 (stereo not shown) [Example B-0695] | 230 nM |  | 
CC(NC(=O)c1ccccc1C(F)(F)F)c1[nH]nc(-c2ccc(F)cc2)c1-c1ccncc1 (stereo not shown) [Example B-0545] | 1060 nM |  | 
Cc1c(-c2ccncc2)c(-c2ccc(F)cc2)nn1CC(=O)Nc1ccccc1C(=O)NC1CCCCC1 [Example B-2451] |  |  | P38 alpha kinase IC50, uM or % inhib @ conc. (uM): % inhib (@ 10.0 uM): 87.0% @
CCCCS(=O)(=O)NC(Cc1ccccc1)c1[nH]nc(-c2ccc(F)cc2)c1-c1ccncc1 (stereo not shown) [Example B-0761] | < 100 nM |  | 
Cc1cccc(C)c1NC(=O)NC(Cc1ccccc1)c1[nH]nc(-c2ccc(F)cc2)c1-c1ccncc1 (stereo not shown) [Example B-0778] | 51000 nM |  | 
O=S(=O)(NCCc1[nH]nc(-c2ccc(F)cc2)c1-c1ccncc1)c1cccc2cnccc12 [Example B-1118] | 330 nM |  | 
CC(C)NC(=O)NC(C)c1[nH]nc(-c2ccc(F)cc2)c1-c1ccncc1 (stereo not shown) [Example B-0578] | 1880 nM |  | 
CC(NC(=O)NC(Cc1ccccc1)c1[nH]nc(-c2ccc(F)cc2)c1-c1ccncc1)c1ccccc1 (stereo not shown) [Example B-0784] | 7000 nM |  | 
O=C(NCc1[nH]nc(-c2ccc(F)cc2)c1-c1ccncc1)c1ccc(I)cc1 [Example B-0017] |  |  | inhibition at 1 µM (@ 1.0 uM, read-out: P38 alpha kinase % inhib @ conc.): 56%
CCOC(=O)NC(C)c1[nH]nc(-c2ccc(F)cc2)c1-c1ccncc1 (stereo not shown) [Example B-0603] | 90 nM |  | 
O=S(=O)(NCCc1[nH]nc(-c2ccc(F)cc2)c1-c1ccncc1)c1cc(Cl)ccc1Cl [Example B-1066] | < 100 nM |  | 
COc1cccc(CC(=O)NC(Cc2ccccc2)c2[nH]nc(-c3ccc(F)cc3)c2-c2ccncc2)c1 (stereo not shown) [Example B-0849] | 1250 nM |  | 
COc1ccc(NC(=O)NCCc2[nH]nc(-c3ccc(F)cc3)c2-c2ccncc2)cc1 [Example B-1047] |  |  | P38 alpha kinase % inhib @ conc. (uM) (@ 1.0 uM): 72.0% @
CC(C)OC(=O)NC(C)c1[nH]nc(-c2ccc(F)cc2)c1-c1ccncc1 (stereo not shown) [Example B-0606] | 170 nM |  | 
CC(NS(=O)(=O)c1cccc2ccccc12)c1[nH]nc(-c2ccc(F)cc2)c1-c1ccncc1 (stereo not shown) [Example B-0618] | 370 nM |  | 
CNC(=O)NCCCc1[nH]nc(-c2ccc(F)cc2)c1-c1ccncc1 [Example B-1213] |  |  | P38 alpha kinase % inhib @ conc. (@ 1.0 uM): 84.0% @
Cc1c(-c2ccncc2)c(-c2ccc(F)cc2)nn1CC(=O)NC1CCCc2ccccc21 (stereo not shown) [Example B-2326] |  |  | P38 alpha kinase % inhib @ conc. (@ 10.0 uM): 76.0% @
CCS(=O)(=O)NCCCc1[nH]nc(-c2ccc(F)cc2)c1-c1ccncc1 [Example B-1200] |  |  | P38 alpha kinase % inhib @ conc. (@ 1.0 uM): 95.0% @
O=[N+]([O-])c1ccccc1CS(=O)(=O)NCCc1[nH]nc(-c2ccc(F)cc2)c1-c1ccncc1 [Example B-1070] | < 100 nM |  | 
C[C@@H](NS(=O)(=O)c1cccc(Br)c1)c1[nH]nc(-c2ccc(F)cc2)c1-c1ccncc1 [Example B-0455] | < 100 nM |  | 

SMILES | IC50 [1] | IC50 [2] | also measured
O=C(NCCc1[nH]nc(-c2ccc(F)cc2)c1-c1ccncc1)C1CC1 [Example B-0989] |  |  | P38 alpha kinase % inhib @ conc. (uM) (@ 1.0 uM): 85.0% @
CC(NC(=O)c1ccc(C(F)(F)F)cc1F)c1[nH]nc(-c2ccc(F)cc2)c1-c1ccncc1 (stereo not shown) [Example B-0685] | 15400 nM |  | 
CC(NC(=O)c1c(F)cc(F)cc1F)c1[nH]nc(-c2ccc(F)cc2)c1-c1ccncc1 (stereo not shown) [Example B-0684] | 540 nM |  | 
Cc1c(-c2ccncc2)c(-c2ccc(F)cc2)nn1CC(=O)NC(C)CCc1ccccc1 (stereo not shown) [Example B-2340] |  |  | P38 alpha kinase % inhib @ conc. (@ 10.0 uM): 35.0% @
CC1(C)C2CCC1(S(=O)(=O)NCCc1[nH]nc(-c3ccc(F)cc3)c1-c1ccncc1)C(=O)C2 (stereo not shown) [Example B-1100] | 220 nM |  | 
O=C(c1n[nH]c(-c2ccc(F)cc2)c1-c1ccncc1)N1CCNCC1 [A-314, Step 1, 1-[[5-(4-fluorophenyl)-4-(4-pyridinyl)-1H-pyrazol-3-yl]carbonyl]piperazine, monhydrate] |  |  | IC50 (Table 8, 1% DMSO, read-out: p38α Kinase Assay IC50): 850 nM
CCN(CC)CC(C)NC(=O)Cn1nc(-c2ccc(F)cc2)c(-c2ccncc2)c1C (stereo not shown) [Example B-2337] |  |  | P38 alpha kinase % inhib @ conc. (@ 10.0 uM): 46.0% @
CC(NC(=O)c1c(F)cccc1F)c1[nH]nc(-c2ccc(F)cc2)c1-c1ccncc1 (stereo not shown) [Example B-0700] | 240 nM |  | 
Cc1cccc(C)c1NC(=O)NC(C)c1[nH]nc(-c2ccc(F)cc2)c1-c1ccncc1 (stereo not shown) [Example B-0588] | 12800 nM |  | 
O=C(Nc1cccc(F)c1)NC(Cc1ccccc1)c1[nH]nc(-c2ccc(F)cc2)c1-c1ccncc1 (stereo not shown) [Example B-0740] | 4400 nM |  | 
Cc1c(-c2ccncc2)c(-c2ccc(F)cc2)nn1CC(=O)Nc1ccc(OCCOc2ccccc2)cc1 [Example B-2448] |  |  | P38 alpha kinase IC50, uM or % inhib @ conc. (uM): % inhib (@ 10.0 uM): 75.0% @
COc1ccc(S(=O)(=O)NC(Cc2ccccc2)c2[nH]nc(-c3ccc(F)cc3)c2-c2ccncc2)cc1 (stereo not shown) [Example B-0764] | 670 nM |  | 
CC(C)c1ccc(S(=O)(=O)NCCc2[nH]nc(-c3ccc(F)cc3)c2-c2ccncc2)cc1 [Example B-1074] | 230 nM |  | 
O=C(NCCCc1[nH]nc(-c2ccc(F)cc2)c1-c1ccncc1)c1ccccc1C(F)(F)F [Example B-1173] |  |  | P38 alpha kinase % inhib @ conc. (uM) (@ 1.0 uM): 65.0% @
Cc1c(-c2ccncc2)c(-c2ccc(F)cc2)nn1CC(=O)Nc1ccccc1C(C)C [Example B-2433] |  |  | P38 alpha kinase IC50, uM or % inhib @ conc. (uM): % inhib (@ 10.0 uM): 94.0% @
CCCCCCCOc1ccc(NC(=O)Cn2nc(-c3ccc(F)cc3)c(-c3ccncc3)c2C)cc1 [Example B-2452] |  |  | P38 alpha kinase IC50, uM or % inhib @ conc. (uM): % inhib (@ 10.0 uM): 89.0% @
O=S(=O)(NCCc1[nH]nc(-c2ccc(F)cc2)c1-c1ccncc1)C(F)(F)F [Example B-1019] |  |  | P38 alpha kinase % inhib @ conc. (uM) (@ 1.0 uM): 82.0% @
Cc1noc(C)c1S(=O)(=O)NCCc1[nH]nc(-c2ccc(F)cc2)c1-c1ccncc1 [Example B-1104] | 120 nM |  | 
CC(NC(=O)c1ccccc1I)c1[nH]nc(-c2ccc(F)cc2)c1-c1ccncc1 (stereo not shown) [Example B-0531] | 500 nM |  | 
O=S(=O)(NCCc1[nH]nc(-c2ccc(F)cc2)c1-c1ccncc1)c1ccccc1Cl [Example B-1091] | < 100 nM |  | 
Cc1noc(C)c1S(=O)(=O)NC(C)c1[nH]nc(-c2ccc(F)cc2)c1-c1ccncc1 (stereo not shown) [Example B-0653] | 2010 nM |  | 
Cc1ccc(C)c(S(=O)(=O)NC(C)c2[nH]nc(-c3ccc(F)cc3)c2-c2ccncc2)c1 (stereo not shown) [Example B-0645] | 580 nM |  | 
CCCNC(=O)NC(Cc1ccccc1)c1[nH]nc(-c2ccc(F)cc2)c1-c1ccncc1 (stereo not shown) [Example B-0735] | 1000 nM |  | 

Further lines, with some results ahead:

IC50 [1] | IC50 [2] | SMILES | also measured
 | 1800 nM | Cc1noc(C)c1S(=O)(=O)N1CCC(c2[nH]nc(-c3ccc(F)cc3)c2-c2ccncc2)CC1 [Example B-1435] | 
 | 410 nM | CC(C)c1ccc(S(=O)(=O)NCCCc2[nH]nc(-c3ccc(F)cc3)c2-c2ccncc2)cc1 [Example B-1251] | 
 | < 100 nM | O=C(c1ccno1)N1CCC(c2[nH]nc(-c3ccc(F)cc3)c2-c2ccncc2)CC1 [Example B-1367] | 
1710 nM |  | O=C(NCCc1[nH]nc(-c2ccc(F)cc2)c1-c1ccncc1)c1cc(C(F)(F)F)ccc1F [Example B-1134] | 
 | 1970 nM | Cc1ccc(S(=O)(=O)NCCNC(=O)Cn2nc(-c3ccc(F)cc3)c(-c3ccncc3)c2C)cc1 [Example B-2299] | 
 | 4540 nM | Cc1noc(C)c1C(=O)N1CCC(c2[nH]nc(-c3ccc(F)cc3)c2-c2ccncc2)CC1 [Example B-1403] | 
 | 8820 nM | COCCNC(=O)Cn1nc(-c2ccc(F)cc2)c(-c2ccncc2)c1C [Example B-2292] | 
 | 260 nM | Cc1cc(C)c(S(=O)(=O)NCCCc2[nH]nc(-c3ccc(F)cc3)c2-c2ccncc2)c(C)c1 [Example B-1244] | 
 | 270 nM | O=S(=O)(NCCCc1[nH]nc(-c2ccc(F)cc2)c1-c1ccncc1)c1cccc2ccccc12 [Example B-1246] | 
 | 13 nM | Cc1ccc(C(=O)NCCCc2[nH]nc(-c3ccc(F)cc3)c2-c2ccncc2)cc1 [Example B-1323] | 
 | 270 nM | O=C(c1ccc(F)c(C(F)(F)F)c1)N1CCC(c2[nH]nc(-c3ccc(F)cc3)c2-c2ccncc2)CC1 [Example B-1408] | 
 | < 100 nM | O=C(N1CCC(c2[nH]nc(-c3ccc(F)cc3)c2-c2ccncc2)CC1)C(F)(F)F [Example B-1429] | 
270 nM |  | O=C(NCCc1[nH]nc(-c2ccc(F)cc2)c1-c1ccncc1)c1cccs1 [Example B-1156] | 
 | 40 nM | Cc1c(-c2ccncc2)c(-c2ccc(F)cc2)nn1CC(=O)NC[C@@H]1CCCO1 [Example B-2283] | 
 | 65 nM | O=C(NCCCc1[nH]nc(-c2ccc(F)cc2)c1-c1ccncc1)c1ccccc1Cl [Example B-1343] | 
 | 17300 nM | COc1ccc2[nH]cc(CCNC(=O)Cn3nc(-c4ccc(F)cc4)c(-c4ccncc4)c3C)c2c1 [Example B-2296] | 
 | 180 nM | O=C(NCCCc1[nH]nc(-c2ccc(F)cc2)c1-c1ccncc1)c1cccs1 [Example B-1357] | 
 | 2370 nM | Cc1c(-c2ccncc2)c(-c2ccc(F)cc2)nn1CC(=O)NCc1ccc(C(C)(C)C)cc1 [Example B-2290] | 
 | 40 nM | CC(=O)Nc1nc(C)c(S(=O)(=O)NCCCc2[nH]nc(-c3ccc(F)cc3)c2-c2ccncc2)s1 [Example B-1235] | 
 | 730 nM | O=S(=O)(NCCCc1[nH]nc(-c2ccc(F)cc2)c1-c1ccncc1)c1cc(S(=O)(=O)c2ccccc2)cs1 [Example B-1289] | 
 | 2290 nM | Cc1c(-c2ccncc2)c(-c2ccc(F)cc2)nn1CC(=O)NCc1cccc2ccccc12 [Example B-2285] | 
 | < 100 nM | O=S(=O)(NCCCc1[nH]nc(-c2ccc(F)cc2)c1-c1ccncc1)c1cccc2nonc12 [Example B-1282] | 
 | 2880 nM | O=S(=O)(c1c(Cl)cccc1Cl)N1CCC(c2[nH]nc(-c3ccc(F)cc3)c2-c2ccncc2)CC1 [Example B-1451] | 
